# Molecular target: T1, Human CaV2.2 channels (Homo sapiens, UniProt Q00975)
# T1 construct: expressed in transfected cells
# Assay: Fluorescence assay for CaV2.2 channels using potassium depolarization to induce channel opening (FLIPR, Fluo 4)
# Format: cell-based
# Settings: 30 mM KCl (alternative assay buffer, inactivated channel state), HEK293 cells; for inhibition at 3 µM: HEK293, 3 μM test compound, read-out: Activity Category: %-Inhib (CaV2.2) @3 μM @30 mM KCl; for Activity Category: %-Inhib (CaV2.2) @3 μM @30 mM KCl: 3 μM test compound
# From the text: In the process, the Ca^2+ influx is quantified in the FLIPR assay with the aid of a Ca^2+-sensitive dye (type Fluo-4, Molecular Probes Europe BV, Leiden, the Netherlands) in a fluorescent imaging plate reader (FLIPR 3, Molecular Devices, Sunnyvale, USA), as described hereinafter.
# 2.1 Fluorescence Assay for CaV2.2 Channels Using Potassium Depolarization to Induce Channel Opening
# Human CaV2.2 channels were stably expressed in HEK293 cells together with alpha2-delta and beta subunits of voltage gated calcium channels. In addition, an inwardly rectifying potassium channel (Kir2.3) was stably expressed in these cells to augment control of the cell membrane potential by the concentration of extracellular potassium ions. Raise of the extracellular potassium concentration leads to depolarization of the membrane potential and thus regulates the voltage dependent state of CaV2.2 channels. For preparation, cells were seeded in black poly-D-lysine coated 96-well plates (Becton Dickinson, Biocoat 4640) in 100 μL medium [500 mL DMEM/F-12 plus Glutamax (Invitrogen 31331-093) plus 5.5 mL MEM NEAA 100× (Invitrogen 11140-035) plus 50 mL FBS decomplemented (Invitrogen 10270-106) plus 200 μg/mL Geneticin (Invitrogen 10131-027) plus 50 μg/mL Hygromycin B (Invitrogen 10687-010) plus 2 μg/mL Blasticidin (anti-b15b Invivo-Gen) plus 0.2 μg/mL Puromycin (A 11138-03)] at a cell density of 30.000 cells per well. Plates were incubated at 37° C. (5% CO2) for 20 to 23 h. On the day of experiment medium was discarded and cells were loaded with Fluo 4 by addition of 100 μL of basic assay buffer (10 mM HEPES, 1 mM KCl, 149 mM NaCl, 0.8 mM CaCl2, 1.7 mM MgCl2, 10 mM Glucose, 0.1% BSA. pH 7.4) containing 2 μM Fluo 4 (Molecular Probes; F-14201), 0.01% pluronic acid (Molecular Probes; P-6866) and 2.5 mM probenecid (Molecular Probes; P36400). Cells were incubated in the dark at 25° C. for 60 min. Then dye containing buffer was discarded and […] basic (1 mM KCl) or alternative (30 mM KCl) assay buffer was added. The alternative assay buffer contained altered concentrations of KCl (30 mM) and NaCl (120 mM) and was used in order to promote the inactivated channel state. After that 25 μL of basic or alternative assay buffer with or without test compound were added and cells were incubated again in the dark at 25° C. for 15 min. Fluorescence intensity was measured on a FLIPR 3 instrument (Molecular Devices Corp., Sunnyvale, Calif.) with excitation at 480 nm and emission at 535 nm. After continuously reading fluorescence for 30 sec, 50 μL of basic assay buffer containing 210 mM KCl (NaCl omitted) were added for depolarization. Peak fluorescent signal intensity was determined and the amplitude of the peak signal, normalized to base line, was used to measure channel inhibition by test compounds.
# T1 sequence (Q00975 whole entry): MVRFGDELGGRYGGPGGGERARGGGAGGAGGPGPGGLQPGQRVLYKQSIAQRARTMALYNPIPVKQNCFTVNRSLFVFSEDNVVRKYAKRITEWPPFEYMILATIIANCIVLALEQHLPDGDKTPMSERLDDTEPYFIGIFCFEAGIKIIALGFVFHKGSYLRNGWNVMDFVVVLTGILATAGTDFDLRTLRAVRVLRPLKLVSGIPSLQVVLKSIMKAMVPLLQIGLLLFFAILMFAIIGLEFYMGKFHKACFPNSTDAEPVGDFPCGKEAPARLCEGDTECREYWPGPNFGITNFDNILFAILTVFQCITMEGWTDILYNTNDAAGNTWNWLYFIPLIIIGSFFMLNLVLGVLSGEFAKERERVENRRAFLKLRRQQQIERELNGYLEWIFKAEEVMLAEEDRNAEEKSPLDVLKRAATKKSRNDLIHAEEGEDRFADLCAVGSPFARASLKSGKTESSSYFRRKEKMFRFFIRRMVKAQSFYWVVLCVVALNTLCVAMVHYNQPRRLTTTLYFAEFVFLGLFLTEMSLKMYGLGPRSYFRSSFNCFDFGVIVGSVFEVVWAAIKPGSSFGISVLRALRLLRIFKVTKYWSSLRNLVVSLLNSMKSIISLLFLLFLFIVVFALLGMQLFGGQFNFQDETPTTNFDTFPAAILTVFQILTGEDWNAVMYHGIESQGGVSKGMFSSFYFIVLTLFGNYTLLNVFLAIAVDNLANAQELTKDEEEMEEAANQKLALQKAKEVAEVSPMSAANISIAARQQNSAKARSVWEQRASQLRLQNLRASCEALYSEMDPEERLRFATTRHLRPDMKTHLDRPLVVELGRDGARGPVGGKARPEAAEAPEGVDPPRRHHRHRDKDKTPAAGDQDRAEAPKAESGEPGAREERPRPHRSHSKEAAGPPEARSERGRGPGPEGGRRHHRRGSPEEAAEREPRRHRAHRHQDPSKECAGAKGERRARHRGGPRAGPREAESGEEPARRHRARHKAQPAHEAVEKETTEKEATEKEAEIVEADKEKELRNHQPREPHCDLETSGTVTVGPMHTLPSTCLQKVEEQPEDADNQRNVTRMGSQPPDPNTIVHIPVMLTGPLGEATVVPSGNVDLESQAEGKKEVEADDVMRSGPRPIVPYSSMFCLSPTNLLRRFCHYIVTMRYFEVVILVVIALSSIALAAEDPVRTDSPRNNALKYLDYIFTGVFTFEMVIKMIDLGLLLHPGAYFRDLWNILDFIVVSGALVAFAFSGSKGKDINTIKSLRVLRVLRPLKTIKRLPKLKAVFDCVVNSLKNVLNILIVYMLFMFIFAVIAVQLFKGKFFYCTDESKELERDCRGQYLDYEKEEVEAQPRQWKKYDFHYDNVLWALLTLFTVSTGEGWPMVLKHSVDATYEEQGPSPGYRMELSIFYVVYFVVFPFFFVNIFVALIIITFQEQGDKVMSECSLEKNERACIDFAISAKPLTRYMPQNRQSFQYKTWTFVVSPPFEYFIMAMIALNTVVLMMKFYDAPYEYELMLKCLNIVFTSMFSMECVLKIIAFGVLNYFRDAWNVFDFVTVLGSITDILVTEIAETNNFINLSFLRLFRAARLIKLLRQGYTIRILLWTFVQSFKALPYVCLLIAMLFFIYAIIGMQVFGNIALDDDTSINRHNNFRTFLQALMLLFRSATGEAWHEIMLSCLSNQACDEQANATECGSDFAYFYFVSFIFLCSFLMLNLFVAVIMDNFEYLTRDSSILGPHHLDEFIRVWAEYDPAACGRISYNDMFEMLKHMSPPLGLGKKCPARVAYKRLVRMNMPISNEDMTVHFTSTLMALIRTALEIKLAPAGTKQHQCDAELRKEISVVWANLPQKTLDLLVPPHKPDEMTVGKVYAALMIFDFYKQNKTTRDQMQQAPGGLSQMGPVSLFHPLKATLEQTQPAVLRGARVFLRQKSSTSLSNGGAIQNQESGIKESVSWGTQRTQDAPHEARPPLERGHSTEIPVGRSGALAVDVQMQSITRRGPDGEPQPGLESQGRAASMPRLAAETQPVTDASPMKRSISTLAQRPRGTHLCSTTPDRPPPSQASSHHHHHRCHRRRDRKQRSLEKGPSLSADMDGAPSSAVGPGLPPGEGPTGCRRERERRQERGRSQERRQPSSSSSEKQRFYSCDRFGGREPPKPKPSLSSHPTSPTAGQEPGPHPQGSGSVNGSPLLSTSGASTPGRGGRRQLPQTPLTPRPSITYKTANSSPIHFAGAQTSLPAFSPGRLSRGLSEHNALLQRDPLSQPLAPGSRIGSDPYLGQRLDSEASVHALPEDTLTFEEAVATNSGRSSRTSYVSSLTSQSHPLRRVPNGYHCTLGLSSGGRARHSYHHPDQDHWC
Structure (SMILES),inhibition at 3 µM [%],Activity Category: %-Inhib (CaV2.2) @3 μM @30 mM KCl
"CC1(S(=O)(=O)c2cccc(C(F)(F)F)c2)CCOC(c2cc(C(F)(F)F)nn2CCO)C1 (racemic) [Example 2 trans-rac, 2-[5-[4-Methyl-4-[[3-(trifluoromethyl)phenyl]sulfonyl]-tetrahydro-pyran-2-yl]-3-(trifluoromethyl)-1H-pyrazol-1-yl]-ethanol]",40 to 75,–
"COCCCn1nc(C(F)(F)F)cc1C1CC(C)(S(=O)(=O)c2cccc(C(F)(F)F)c2)CCO1 (racemic) [Example 10 cis-rac, 1-(3-Methoxypropyl)-5-(4-methyl-4-((3-(trifluoromethyl)phenyl)sulfonyl)tetrahydro-2H-pyran-2-yl)-3-(trifluoromethyl)-1H-pyrazole]",> 95,–
"CC1(S(=O)(=O)c2cccc(C(F)(F)F)c2)CCOC(c2cc(C(F)(F)F)nn2CC2(N)CC2)C1 (racemic) [Example 15 cis-rac, [1-[[5-[4-Methyl-4-[[3-(trifluoromethyl)phenyl]sulfonyl]-tetrahydro-pyran-2-yl]-3-(trifluoromethyl)-1H-pyrazol-1-yl]-methyl]-cyclopropyl]-amine]",> 95,–
"CC1(S(=O)(=O)c2cccc(C(F)(F)F)c2)CCOC(c2cc(C(F)(F)F)nn2CS(C)(=O)=O)C1 (racemic) [Example 18 cis-rac, 1-(Methylsulfonyl-methyl)-5-[4-methyl-4-[[3-(trifluoromethyl)phenyl]sulfonyl]-tetrahydro-pyran-2-yl]-3-(trifluoromethyl)-1H-pyrazole]",> 95,–
"COCCn1nc(S(C)(=O)=O)cc1C1CC(C)(S(=O)(=O)c2cccc(C(F)(F)F)c2)CCO1 (racemic) [Example 23 cis-rac, 1-(2-Methoxyethyl)-5-(4-methyl-4-((3-(trifluoromethyl)phenyl)sulfonyl)tetrahydro-2H-pyran-2-yl)-3-(methylsulfonyl)-1H-pyrazole]",75 to 95,–
"CC(CO)Cn1nc(C(F)(F)F)cc1C1CC(C)(S(=O)(=O)c2cccc(C(F)(F)F)c2)CCO1 (racemic) [Example 24 cis-rac, 2-Methyl-3-[5-[4-methyl-4-[[3-(trifluoromethyl)phenyl]sulfonyl]-tetrahydro-pyran-2-yl]-3-(trifluoromethyl)-1H-pyrazol-1-yl]-propan-1-ol]",> 95,–
"CC1(S(=O)(=O)c2cccc(C(F)(F)F)c2)CCOC(c2cc(C(F)(F)F)nn2CCO)C1 (stereo not drawn) [Example 2 cis-EN1, 2-[5-[4-Methyl-4-[[3-(trifluoromethyl)phenyl]sulfonyl]-tetrahydro-pyran-2-yl]-3-(trifluoromethyl)-1H-pyrazol-1-yl]-ethanol]",75 to 95,–
"CC1(S(=O)(=O)c2cccc(C(F)(F)F)c2)CCOC(c2cc(C(F)(F)F)nn2CCO)C1 (stereo not drawn) [Example 2 cis-EN2, 2-[5-[4-Methyl-4-[[3-(trifluoromethyl)phenyl]sulfonyl]-tetrahydro-pyran-2-yl]-3-(trifluoromethyl)-1H-pyrazol-1-yl]-ethanol]",–,A (“A”: %-Inhibition >95%)
"CC1(S(=O)(=O)c2cccc(C(F)(F)F)c2)CCOC(c2cc(S(C)(=O)=O)nn2CCO)C1 (stereo not drawn) [Example 4 cis-EN1, 2-[3-Methylsulfonyl-5-[4-methyl-4-[[3-(trifluoromethyl)phenyl]sulfonyl]-tetrahydro-pyran-2-yl]-1H-pyrazol-1-yl]-ethanol]",40 to 75,–
"COCn1nc(C(F)F)cc1C1CC(C)(S(=O)(=O)c2cccc(C(F)(F)F)c2)CCO1 (stereo not drawn) [Example 5 cis-EN1, 3-(Difluoromethyl)-1-(methoxymethyl)-5-(4-methyl-4-((3-(trifluoromethyl)phenyl)sulfonyl)tetrahydro-2H-pyran-2-yl)-1H-pyrazole]",75 to 95,–
"COCn1nc(C(F)F)cc1C1CC(C)(S(=O)(=O)c2cccc(C(F)(F)F)c2)CCO1 (stereo not drawn) [Example 5 cis-EN2, 3-(Difluoromethyl)-1-(methoxymethyl)-5-(4-methyl-4-((3-(trifluoromethyl)phenyl)sulfonyl)tetrahydro-2H-pyran-2-yl)-1H-pyrazole]",–,A (“A”: %-Inhibition >95%)
"CC(C)(CO)n1nc(C(F)(F)F)cc1C1CC(C)(S(=O)(=O)c2cccc(C(F)(F)F)c2)CCO1 (stereo not drawn) [Example 6 cis-EN1, 2-Methyl-2-[5-[4-methyl-4-[[3-(trifluoromethyl)phenyl]sulfonyl]-tetrahydro-pyran-2-yl]-3-(trifluoromethyl)-1H-pyrazol-1-yl]-propan-1-ol]",75 to 95,–
"CC(C)(CO)n1nc(C(F)(F)F)cc1C1CC(C)(S(=O)(=O)c2cccc(C(F)(F)F)c2)CCO1 (stereo not drawn) [Example 6 cis-EN2, 2-Methyl-2-[5-[4-methyl-4-[[3-(trifluoromethyl)phenyl]sulfonyl]-tetrahydro-pyran-2-yl]-3-(trifluoromethyl)-1H-pyrazol-1-yl]-propan-1-ol]",–,A (“A”: %-Inhibition >95%)
"CC1(S(=O)(=O)c2cccc(C(F)(F)F)c2)CCOC(c2cc(C(F)(F)F)nn2CCCO)C1 (stereo not drawn) [Example 9 cis-EN1, 3-[5-[4-Methyl-4-[[3-(trifluoromethyl)phenyl]sulfonyl]-tetrahydro-pyran-2-yl]-3-(trifluoromethyl)-1H-pyrazol-1-yl]-propan-1-ol]",75 to 95,–
"CC1(S(=O)(=O)c2cccc(C(F)(F)F)c2)CCOC(c2cc(C(F)(F)F)nn2CC(N)=O)C1 (stereo not drawn) [Example 11 cis-EN1, 2-[5-[4-Methyl-4-[[3-(trifluoromethyl)phenyl]sulfonyl]-tetrahydro-pyran-2-yl]-3-(trifluoromethyl)-1H-pyrazol-1-yl]-acetamide]",75 to 95,–
"CC1(S(=O)(=O)c2cccc(C(F)(F)F)c2)CCOC(c2cc(C(F)(F)F)nn2C2COC2)C1 (stereo not drawn) [Example 17 cis-EN1, 5-[4-Methyl-4-[[3-(trifluoromethyl)phenyl]sulfonyl]-tetrahydro-pyran-2-yl]-1-(oxetan-3-yl)-3-(trifluoromethyl)-1H-pyrazole]",75 to 95,–
"CC1(S(=O)(=O)c2cccc(C(F)(F)F)c2)CCOC(c2cc(C(F)(F)F)nn2CCS(C)(=O)=O)C1 (stereo not drawn) [Example 19 cis-EN1, 1-(2-Methylsulfonyl-ethyl)-5-[4-methyl-4-[[3-(trifluoromethyl)phenyl]sulfonyl]-tetrahydro-pyran-2-yl]-3-(trifluoromethyl)-1H-pyrazole]",–,B (“B”: %-Inhibition >75% up to ≤95%)
"CC1(S(=O)(=O)c2cccc(C(F)(F)F)c2)CCOC(c2cc(C(F)(F)F)nn2CCS(C)(=O)=O)C1 (stereo not drawn) [Example 19 cis-EN2, 1-(2-Methylsulfonyl-ethyl)-5-[4-methyl-4-[[3-(trifluoromethyl)phenyl]sulfonyl]-tetrahydro-pyran-2-yl]-3-(trifluoromethyl)-1H-pyrazole]",> 95,–
"CC1(S(=O)(=O)c2cccc(C(F)(F)F)c2)CCOC(c2cc(C(F)(F)F)nn2C2CS(=O)(=O)C2)C1 (stereo not drawn) [Example 20 cis-EN1, 3-[5-[4-Methyl-4-[[3-(trifluoromethyl)phenyl]sulfonyl]-tetrahydro-pyran-2-yl]-3-(trifluoromethyl)-1H-pyrazol-1-yl]-thietane-1,1-dioxide]",75 to 95,–
"COCn1nc(C(F)(F)F)cc1C1CC(C)(S(=O)(=O)c2cccc(C(F)(F)F)c2)CCO1 (stereo not drawn) [Example 21 cis-EN1, 1-(Methoxymethyl)-5-[4-methyl-4-[[3-(trifluoromethyl)phenyl]sulfonyl]-tetrahydro-pyran-2-yl]-3-(trifluoromethyl)-1H-pyrazole]",> 95,–
"CC1(S(=O)(=O)c2cccc(C(F)(F)F)c2)CCOC(c2cc(S(=O)(=O)C(F)F)nn2CCO)C1 (stereo not drawn) [Example 25 cis-EN1, 2-[3-(Difluoro-methylsulfonyl)-5-[4-methyl-4-[[3-(trifluoromethyl)phenyl]sulfonyl]-tetrahydro-pyran-2-yl]-1H-pyrazol-1-yl]-ethanol]",75 to 95,–
"CC1(S(=O)(=O)c2cccc(C(F)(F)F)c2)CCOC(c2cc(S(=O)(=O)C(F)F)nn2CCO)C1 (stereo not drawn) [Example 25 cis-EN2, 2-[3-(Difluoro-methylsulfonyl)-5-[4-methyl-4-[[3-(trifluoromethyl)phenyl]sulfonyl]-tetrahydro-pyran-2-yl]-1H-pyrazol-1-yl]-ethanol]",–,A (“A”: %-Inhibition >95%)

# Reference: US10100041B2, “Pyrazolyl substituted tetrahydropyranylsulfones” (GRÜNENTHAL GMBH, priority 2015, dated 2018)
